Values joined by “and” are separate entries in the source; they are usually repeats but may differ in a detail not shown here. Identical values can stand only once.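 Cultured in 96-well plates, cells were exposed to test compound for 48 hours across five concentrations. GI50 = concentration required for 50% inhibition of growth. TGI: total growth inhibition.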
Key:
Assay in all cases: inhibition of tumour cell growth, NCI panel, 48 h
[1] = system: CAKI-1 renal
[2] = system: K-562 leukemia
[3] = system: M14 melanoma
[4] = system: MALME-3M melanoma
[5] = system: NCI-H226 lung
[6] = system: NCI-H522 lung
[7] = system: NCI/ADR-RES ovarian
[8] = system: SF-539 CNS
[9] = system: SK-MEL-2 melanoma
[10] = system: UACC-257 melanoma

SMILES | GI50 [1] | TGI [1] | GI50 [2] | TGI [2] | GI50 [3] | TGI [3] | GI50 [4] | TGI [4] | GI50 [5] | TGI [5] | GI50 [6] | TGI [6] | GI50 [7] | TGI [7] | GI50 [8] | TGI [8] | GI50 [9] | TGI [9] | GI50 [10] | TGI [10]
O=C1/C(=C/c2ccc([N+](=O)[O-])o2)Oc2ccccc21 | 0.758 µM | 2.17 µM | 0.371 µM | 1.97 µM | 1.69 µM | 3.88 µM | 1.86 µM | 3.78 µM | 1.94 µM | 4.98 µM | 0.384 µM | 1.45 µM | 3.08 µM | 11.7 µM | 1.87 µM | 4.14 µM | 1.91 µM | 3.73 µM | 1.68 µM | 3.5 µM
COc1cc(-n2cc(-c3ccc(F)cc3)[nH]c2=S)cc(OC)c1OC | 38.1 µM | > 100 µM | > 100 µM | > 100 µM |  |  | > 100 µM | > 100 µM | > 100 µM | > 100 µM | > 100 µM | > 100 µM | > 100 µM | > 100 µM | 63.1 µM | > 100 µM | > 100 µM | > 100 µM | > 100 µM | > 100 µM
O=C(NCC(=O)N1CC[C@H](NC2CCC(O)(c3ccc(-c4ncccn4)cn3)CC2)C1)c1cccc(C(F)(F)F)c1 (stereo not given in full) | 45.7 µM | > 100 µM |  |  |  |  | 37.1 µM | > 100 µM | > 100 µM | > 100 µM | > 100 µM | > 100 µM | > 100 µM | > 100 µM | 96.5 µM | > 100 µM | > 100 µM | > 100 µM | 40.8 µM | > 100 µM
CO/N=C(\COc1ccc2c(c1)oc(=O)c1cc(OC)ccc12)c1cccc(OC)c1 | > 100 µM | > 100 µM | > 100 µM | > 100 µM | > 100 µM | > 100 µM | > 100 µM | > 100 µM | > 100 µM | > 100 µM | > 100 µM | > 100 µM | > 100 µM | > 100 µM | > 100 µM | > 100 µM | > 100 µM | > 100 µM | > 100 µM | > 100 µM
c1ccc2c(Nc3ccc(Oc4ccc(Nc5c6ccccc6nc6ccccc56)cc4)cc3)c3ccccc3nc2c1 | 1.82 µM | 3.22 µM and 3.01 µM | 0.32 µM | 1.08 µM |  | 1.05 µM | 2.08 µM | 3.02 µM and 3.82 µM |  | 3.81 µM | 0.205 µM | 1.97 µM and 0.44 µM |  | 0.156 µM | 2.1 µM and 1.65 µM | 3.91 µM and 3.32 µM | 3.25 µM | 3.78 µM | 1.73 µM and 0.245 µM | 3.2 µM and 0.524 µM
CCOCC(=O)N[C@H]1CCc2cc(OC(=O)COCC)c(OC)c(OC)c2-c2ccc(SC)c(=O)cc21 |  |  |  | 0.0691 µM | 0.0134 µM | 0.0762 µM |  | > 100 µM | 0.0264 µM | 0.0917 µM and 0.0893 µM | 0.0279 µM | 0.0389 µM and 0.107 µM |  | 5.49 µM | 0.0126 µM | 0.061 µM and 0.0554 µM | > 100 µM |  |  | 
CC(C)=CCc1ccc(O)c(=O)cc1C(C)C | 0.29 µM | 2.4 µM | 0.466 µM | > 100 µM | 0.68 µM | 3.95 µM | 0.966 µM | 9.39 µM | 2.37 µM | > 100 µM | 1.22 µM | 69.9 µM | 0.336 µM | 2.74 µM | 0.764 µM | > 41.1 µM | 2.06 µM | > 85.7 µM | 1.59 µM | > 100 µM
COc1ccc(N(C)c2nc(Cl)nc3ccn(C)c23)cc1 |  |  | < 0.01 µM | > 100 µM | < 0.01 µM | > 100 µM | > 100 µM | > 100 µM | > 100 µM | > 100 µM | < 0.01 µM | < 0.01 µM | < 0.01 µM | > 100 µM | < 0.01 µM | > 100 µM |  |  | > 100 µM | > 100 µM
CC1(C)N=C(N)N=C(N)N1c1ccc(OCC(=O)N2CCOCC2)c(Cl)c1 |  |  | 0.854 µM | > 100 µM | 4.19 µM | > 100 µM | 6.17 µM | > 100 µM | 33.5 µM | > 100 µM | 2.24 µM | > 100 µM | > 100 µM | > 100 µM | 5.32 µM | > 100 µM | > 100 µM | > 100 µM | > 100 µM | > 100 µM
O=C1Nc2ccccc2/C1=C/c1cn(C(=O)c2c(Cl)cccc2Cl)c2ccccc12 | 1.89 µM | 5.77 µM | 3.14 µM | > 100 µM | 2.34 µM | 8.19 µM | 2.61 µM | 14.9 µM | 7.48 µM | 27 µM | 4.22 µM | 17.5 µM | 3.4 µM | 18 µM | 4.96 µM | 21.1 µM |  |  | 5 µM | 24.8 µM
CC1CC(C)/C(=N/NC(N)=O)C(C(O)CC2CCC(=O)NC2=O)C1 (stereo not given) | 1.22 µM | 20.3 µM |  |  | 3.64 µM | > 100 µM | 3.21 µM | 41.8 µM | 4.69 µM | > 100 µM | 1.7 µM | 18.1 µM | 3.66 µM | > 100 µM | 3.07 µM | 39.8 µM | 2.2 µM | 12.3 µM | 3.48 µM | 50.4 µM
COc1ccc2cc3[n+](cc2c1OC)CCc1cc2c(cc1-3)OCO2 | > 100 µM and 16.8 µM and 65 µM | > 100 µM and 210 µM | 12.3 µM and 11 µM and 23.5 µM | > 100 µM and > 49.7 µM and 199 µM | 16.9 µM |  | 2.24 µM and 5.1 µM | 27.8 µM [middle of 5 runs] |  | > 100 µM and 94.9 µM and 67.5 µM |  |  | > 100 µM and 323 µM | > 325 µM | 18.1 µM | > 100 µM and 83.1 µM | 11.4 µM and 17.5 µM |  |  | 
CN(C)c1ccc(/C=C/c2ccnc3ccccc23)cc1N |  |  |  | 23.6 µM |  | 25.1 µM |  | 28.8 µM |  | 36.5 µM |  |  |  | 53.9 µM |  | 28.8 µM |  | 21.3 µM |  | 7.75 µM
COc1cc(C(=O)/C=C/c2c(-c3ccc(F)cc3)nc3ncccn23)cc(OC)c1OC |  |  | 3.03 µM | > 100 µM |  |  | 2.84 µM | 58 µM | 3.08 µM | 18.9 µM | 2.87 µM | 10.6 µM | 1.58 µM | 5.11 µM | 1.55 µM | 3.77 µM | 2.38 µM | 6.97 µM | 3.73 µM | > 100 µM
